Source: patent US20230086703A1, “N-(4-(5-chloropyridin-3-yl)phenyl)-2-(2-(cyclopropanesulfonamido)pyrimidin-4-yl) butanamide derivatives and related compounds as human CTPS1 inhibitors for the treatment of proliferative diseases” (Step Pharma S.A.S., priority 2019, published 2023)

Molecular target: T1, human CTPS1 (Homo sapiens, UniProt P17812)
T1 construct: FLAG (with GG linker); His8 (with GG linker); purchased Proteros biostructures GmbH
T1 sequence (P17812 1-591): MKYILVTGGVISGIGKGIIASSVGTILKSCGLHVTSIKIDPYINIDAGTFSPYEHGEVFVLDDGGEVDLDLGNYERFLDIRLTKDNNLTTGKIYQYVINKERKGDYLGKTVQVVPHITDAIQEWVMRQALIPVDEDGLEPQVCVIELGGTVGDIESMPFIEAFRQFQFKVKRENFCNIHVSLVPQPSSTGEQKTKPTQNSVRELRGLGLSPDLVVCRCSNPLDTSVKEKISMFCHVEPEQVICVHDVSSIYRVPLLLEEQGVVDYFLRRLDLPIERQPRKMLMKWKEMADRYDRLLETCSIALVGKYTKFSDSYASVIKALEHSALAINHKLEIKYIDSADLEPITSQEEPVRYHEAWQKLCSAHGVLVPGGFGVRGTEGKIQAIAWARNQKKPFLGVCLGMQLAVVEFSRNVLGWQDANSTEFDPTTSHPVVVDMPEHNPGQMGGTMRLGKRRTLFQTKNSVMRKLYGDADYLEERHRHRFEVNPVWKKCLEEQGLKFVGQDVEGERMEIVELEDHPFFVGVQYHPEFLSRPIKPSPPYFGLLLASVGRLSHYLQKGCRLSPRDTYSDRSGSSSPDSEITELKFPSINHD
Test: RapidFire/MS-based enzyme selectivity assay (human CTPS1 versus CTPS2), CTPS1 isoform
Assay type: biochemical
Procedure: Human CTPS1 Versus CTPS2 Selectivity Assessment by RapidFire/MS Analysis.
The enzyme inhibitory activities against each target isoform of interest may be determined for the compounds of the invention using an optimised RapidFire high-throughput mass spectrometry (RF/MS) assay format. RF/MS assays for both human CTPS1 and CTPS2 may be performed in assay buffer consisting of 50 mM HEPES (Merck), 20 mM MgCl2, 5 mM KCl, 1 mM DTT, 0.01% Tween-20, pH to 8.0 accordingly. Human full-length active C-terminal FLAG-His-tag CTPS1 (UniProtKB—P17812, CTPS1[1-591]-[…] (CTPS1[1-591]-SEQ ID NO: 1)) may be obtained from Proteros biostructures GmbH. Human full length active C-terminal FLAG-His-Avi tagged CTPS2 (UniProtKB—Q9NRF8, CTPS2 [1-586]-[…] (CTPS2 [1-586]—SEQ ID NO: 2)) may be obtained from Harker Bio.
Human CTPS (1 or 2) protein may be prepared in 1× assay buffer to the final working protein concentration required for the reaction. A 2 uL volume per well of 2×CTPS (1 or 2) protein may be mixed with 40 nL of compound using acoustic (ECHO) delivery and incubated for 10 minutes at 25° C. Each isoform enzymatic reaction may be subsequently initiated by addition of 2 uL per well of a 2× substrate mix in assay buffer. For hCTPS1: ATP (0.3 mM), UTP (0.2 mM), GTP (0.07 mM) and L-glutamine (0.1 mM). For hCTPS2: ATP (0.1 mM), UTP (0.04 mM), GTP (0.03 mM) and L-glutamine (0.1 mM). Each mixture may be incubated for an appropriate amount of time per isoform within the determined linear phase of the reaction at 25° C. A 80 uL volume of stop solution (1% formic acid with 0.5 uM ^13C9-^15N3-CTP in H2O) may be added and the plate immediately heat-sealed and centrifuged for 10 minutes at 4,000 rpm. Following centrifugation, plates may be loaded onto the Agilent RapidFire microfluidic solid phase extraction system coupled to an API4000 triple quadrupole mass spectrometer (RF/MS) for analysis.
In all cases, the enzyme converts UTP to CTP. Highly specific and sensitive multiple reaction monitoring (MRM) MS methods may be optimised for the detection of the enzymatic reaction product, CTP, and the stable isotope labelled product standard ^13C9-^15N3-CTP. Readout for data analysis may be calculated as the ratio between the peak area of the product CTP and the internal standard ^13C9-^15N3-CTP. For data reporting, the following equation may be used:
(R=ratio/readout, P=product signal area, IS=internal standard signal area)
For each screening plate, the means of the negative (DMSO) and positive control values were used for the calculation of the respective assay window (S/B) and Z′ values. The median of the respective control values was used for calculation of percent inhibition according to the following equation:
(I=Inhibition, Rneq=median of negative control readout values, Rpos=median of positive control readout values, Rsample=sample readout value)
Percentage inhibition was then plotted against compound concentration, and the 50% inhibitory concentration (IC50) was determined from the resultant concentration-response curve.
Fold selectivity between CTPS1 and CTPS2 was subsequently calculated according to the following equation: […]

[1] = RapidFire/MS IC50 values of CTPS1 and CTPS2, Table 15
[2] = Table 16, human CTPS1 over human CTPS2, RapidFire/MS IC50 values

SMILES | Selectivity (fold selectivity between CTPS1 and CTPS2) [1] | Selectivity (fold selectivity between CTPS1 and CTPS2) [2]
CCOc1cncc(-c2ccc(NC(=O)C3(c4ccnc(NS(=O)(=O)C5CC5)n4)CCOCC3)c(F)c2)n1 [P143, 4-(2-(cyclopropanesulfonamido)pyrimidin-4-yl)-N-(4-(6-ethoxypyrazin-2-yl)-2-fluorophenyl)tetrahydro-2H-pyran-4-carboxamide] | +++ (>60 fold (+++)) | 
CCOc1cncc(-c2ccc(C(=O)NCc3csc(NS(=O)(=O)C4CC4)n3)c(F)c2)n1 [R11, N-((2-(cyclopropanesulfon-amido)thiazol-4-yl)methyl)-4-(6-ethoxypyrazin-2-yl)-2-fluorobenzamide] |  | ++ (>30-60 fold (++))
CCC(C(=O)Nc1ccc(-c2cncc(OCC(F)(F)F)n2)cc1F)c1ccnc(NS(=O)(=O)C2CC2)n1 (stereo not drawn) [P98, 2-(2-(cyclopropanesulfonamido)pyrimidin-4-yl)-N-(2-fluoro-4-(6-(2,2,2-trifluoroethoxy)pyrazin-2-yl)phenyl)butanamide] | +++ (>60 fold (+++)) | 
CCOc1cncc(-c2ccc(NC(=O)C(C)(CCOC)c3cncc(NS(=O)(=O)C4CC4)n3)nc2)n1 (stereo not drawn) [P198, 2-(6-(cyclopropanesulfonamido)pyrazin-2-yl)-N-(5-(6-ethoxypyrazin-2-yl)pyridin-2-yl)-4-methoxy-2-methylbutanamide] | +++ (>60 fold (+++)) | 
CCOc1cncc(-c2ccc(NC(=O)C(C)(C)c3cncc(NS(=O)(=O)C4CC4)n3)nc2)n1 [P195, 2-(6-(cyclopropanesulfonamido)pyrazin-2-yl)-N-(5-(6-ethoxypyrazin-2-yl)pyridin-2-yl)-2-methylpropanamide] | +++ (>60 fold (+++)) | 
CCOc1cncc(-c2ccc(C(=O)NC(CCOC)c3csc(NS(=O)(=O)C4CC4)n3)c(F)c2)n1 (single isomer, unassigned) [R93, N-(1-(2-(cyclopropanesulfon-amido)thiazol-4-yl)-3-methoxypropyl)-4-(6-ethoxypyrazin-2-yl)-2-fluorobenzamide] |  | +++ (>60 fold (+++))
O=C(Cc1ccnc(NS(=O)(=O)C2CC2)n1)Nc1ccc(-c2cccnc2)cc1 [P16, 2-(2-(cyclopropanesulfonamido)pyrimidin-4-yl)-N-(4-(pyridin-3-yl)phenyl)acetamide] | ++ (>30-60 fold (++)) | 
CCOc1cncc(-c2ccc(NC(=O)C(C)(C)c3ccnc(NS(=O)(=O)C4CC4)n3)cc2)n1 [P65, 2-(2-(cyclopropanesulfonamido)pyrimidin-4-yl)-N-(4-(6-ethoxypyrazin-2-yl)phenyl)-2-methylpropanamide] | ++ (>30-60 fold (++)) | 
CCC(C(=O)Nc1ccc(-c2cncc(C(F)(F)F)n2)cn1)c1ccnc(NS(=O)(=O)C2CC2)n1 (stereo not drawn) [P87, 2-(2-(cyclopropanesulfonamido)pyrimidin-4-yl)-N-(5-(6-(trifluoromethyl)pyrazin-2-yl)pyridin-2-yl)butanamide] | ++ (>30-60 fold (++)) | 
CCOc1cncc(-c2ccc(NC(=O)C(CC)c3ccnc(NS(=O)(=O)C4CC4)n3)c(C)c2)n1 (stereo not drawn) [P161, 2-(2-(cyclopropanesulfonamido)pyrimidin-4-yl)-N-(4-(9-ethoxypyrazin-2-yl)-2-methylphenyl)butanamide] | + (2-30 fold (+)) | 
CCOc1cncc(-c2ccc(NC(=O)C(CC)c3cccc(NS(=O)(=O)C4CC4)n3)nc2)n1 (stereo not drawn) [P188, 2-(6-(cyclopropanesulfonamido)pyridin-2-yl)-N-(5-(6-ethoxypyrazin-2-yl)pyridin-2-yl)butanamide] | ++ (>30-60 fold (++)) | 
CCOc1cncc(-c2ccc(NC(=O)C(F)(CC)c3cncc(NS(=O)(=O)C4CC4)n3)nc2)n1 (stereo not drawn) [P200, 2-(6-(cyclopropanesulfonamido)pyrazin-2-yl)-N-(5-(6-ethoxypyrazin-2-yl)pyridin-2-yl)-2-fluorobutanamide] | ++ (>30-60 fold (++)) | 
CCOc1cncc(-c2cnc(NC(=O)C(CC)c3ccnc(NS(=O)(=O)C4CC4)n3)c(C)c2)n1 (stereo not drawn) [P155, 2-(2-(cyclopropanesulfonamido)pyrimidin-4-yl)-N-(5-(6-ethoxypyrazin-2-yl)-3-methylpyridin-2-yl)butanamide] | + (2-30 fold (+)) | 
COCCC(NC(=O)c1ccc(-c2cncc(OC(C)C)n2)cc1F)c1csc(NS(=O)(=O)C2CC2)n1 (stereo not drawn) [R89, N-(1-(2-(cyclopropanesulfon-amido)thiazol-4-yl)-3-methoxypropyl)-2-fluoro-4-(6-isopropoxypyrazin-2-yl)benzamide] |  | +++ (>60 fold (+++))

Further lines, results first:

Selectivity (fold selectivity between CTPS1 and CTPS2) [1] | Selectivity (fold selectivity between CTPS1 and CTPS2) [2] | SMILES
 | ++ (>30-60 fold (++)) | CC(C)(NC(=O)c1ccc(-c2cncc(Cl)n2)cn1)c1csc(NS(=O)(=O)C2CC2)n1 [R25, 5-(6-chloropyrazin-2-yl)-N-(2-(2-(cyclopropanesulfonamido)thiazol-4-yl)propan-2-yl)picolinamide]
 | ++ (>30-60 fold (++)) | Cc1sc(NS(=O)(=O)C2CC2)nc1C(C)(C)NC(=O)c1ccc(-c2cncc(C(F)(F)F)n2)cc1 [R78, N-(2-(2-(cyclopropanesulfon-amido)-5-methylthiazol-4-yl)propan-2-yl)-4-(6-(trifluoromethyl)pyrazin-2-yl)benzamide]
 | +++ (>60 fold (+++)) | CCOc1cncc(-c2ccc(C(=O)NC(CC)c3csc(NS(=O)(=O)C4CC4)n3)c(F)c2)n1 (single isomer, unassigned) [R71, N-(1-(2-(cyclopropanesulfon-amido)thiazol-4-yl)propyl)-4-(6-ethoxypyrazin-2-yl)-2-fluorobenzamide]
 | ++ (>30-60 fold (++)) | CCC(CC)(NC(=O)c1ccc(-c2cncc(C(F)(F)F)n2)cc1)c1csc(NS(=O)(=O)C2CC2)n1 [R19, N-(3-(2-(cyclopropanesulfon-amido)thiazol-4-yl)pentan-3-yl)-4-(6-(trifluoromethyl)pyrazin-2-yl)benzamide]
 | ++ (>30-60 fold (++)) | CCOc1cncc(-c2cnc(C(=O)NC(C)(C)c3csc(NS(=O)(=O)C4CC4)n3)c(F)c2)n1 [R23, N-(2-(2-(cyclopropanesulfon-amido)thiazol-4-yl)propan-2-yl)-5-(6-ethoxypyrazin-2-yl)-3-fluoropicolinamide]
 | + (2-30 fold (+)) | CCOc1cncc(-c2ccc(C(=O)NC(C)(C)c3csc(NS(=O)(=O)C4CC4)n3)c(C)c2)n1 [R46, N-(2-(2-(cyclopropanesulfonamido)thiazol-4-yl)propan-2-yl)-4-(6-ethoxypyrazin-2-yl)-2-methyl benzamide]
 | +++ (>60 fold (+++)) | CCOc1cncc(-c2ccc(C(=O)NC(C)(C)c3csc(NS(=O)(=O)C4CC4)n3)cc2)n1 [R55, N-(2-(2-(cyclopropanesulfon-amido)thiazol-4-yl)propan-2-yl)-4-(6-ethoxypyrazin-2-yl)benzamide]
